{"source": "patent US8192962B2", "about": "“Processes for detecting toxic substances” (Daikin Industries, Ltd., priority 2001, dated 2012)", "tested_on": "Unknown protein yeast genes", "assay": "DNA chip mRNA expression in yeast, unknown protein yeast genes (Table 1)", "assay_type": "cell-based, Saccharomyces cerevisiae S288C", "how_it_was_run": "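S. cerevisiae S288C grown at 25° C. in YPD to log phase, then exposed 2 h to a toxicant at a growth-inhibiting, non-lethal concentration; untreated cells as control. Poly(A) mRNA reverse-transcribed with Cy3-dUTP or Cy5-dUTP, hybridized >12 h at 65° C. to whole-genome yeast DNA chip; value = fluorescence ratio treated/untreated.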", "data": [{"substance": "Na2As [(1)]", "values": [{"measurement": "The level of expressed mRNA in the presence of chemical substance/The level of expressed mRNA in the absence of chemical substance", "setting": "yeast gene YKL195W, incubated two hours with chemical substance", "result": 0.8}, {"measurement": "The level of expressed mRNA in the presence of chemical substance/The level of expressed mRNA in the absence of chemical substance", "setting": "yeast gene YKR091W, incubated two hours with chemical substance", "result": 1.5}, {"measurement": "The level of expressed mRNA in the presence of chemical substance/The level of expressed mRNA in the absence of chemical substance", "setting": "yeast gene YLR054C, incubated two hours with chemical substance", "result": 2.0}, {"measurement": "The level of expressed mRNA in the presence of chemical substance/The level of expressed mRNA in the absence of chemical substance", "setting": "yeast gene YLR149C, incubated two hours with chemical substance", "result": 1.4}, {"measurement": "The level of expressed mRNA in the presence of chemical substance/The level of expressed mRNA in the absence of chemical substance", "setting": "yeast gene YLR152C, incubated two hours with chemical substance", "result": 0.7}, {"measurement": "The level of expressed mRNA in the presence of chemical substance/The level of expressed mRNA in the absence of chemical substance", "setting": "yeast gene YLR194C, incubated two hours with chemical substance", "result": 2.1}, {"measurement": "The level of expressed mRNA in the presence of chemical substance/The level of expressed mRNA in the absence of chemical substance", "setting": "yeast gene YLR324W, incubated two hours with chemical substance", "result": 0.7}, {"measurement": "The level of expressed mRNA in the presence of chemical substance/The level of expressed mRNA in the absence of chemical substance", "setting": "yeast gene YLR350W, incubated two hours with chemical substance", "result": 1.2}, {"measurement": "The level of expressed mRNA in the presence of chemical substance/The level of expressed mRNA in the absence of chemical substance", "setting": "yeast gene YLR387C, incubated two hours with chemical substance", "result": 0.9}, {"measurement": "The level of expressed mRNA in the presence of chemical substance/The level of expressed mRNA in the absence of chemical substance", "setting": "yeast gene YLR460C", "result": 2.1}, {"measurement": "The level of expressed mRNA in the presence of chemical substance/The level of expressed mRNA in the absence of chemical substance", "setting": "yeast gene YML117W, incubated two hours with chemical substance", "result": 0.9}, {"measurement": "The level of expressed mRNA in the presence of chemical substance/The level of expressed mRNA in the absence of chemical substance", "setting": "yeast gene YMR009W, incubated two hours with chemical substance", "result": 2.3}, {"measurement": "The level of expressed mRNA in the presence of chemical substance/The level of expressed mRNA in the absence of chemical substance", "setting": "yeast gene YMR067C, incubated two hours with chemical substance", "result": 0.9}, {"measurement": "The level of expressed mRNA in the presence of chemical substance/The level of expressed mRNA in the absence of chemical substance", "setting": "yeast gene YMR090W", "result": 6.9}, {"measurement": "The level of expressed mRNA in the presence of chemical substance/The level of expressed mRNA in the absence of chemical substance", "setting": "yeast gene YMR095C, incubated two hours with chemical substance", "result": 1.1}, {"measurement": "The level of expressed mRNA in the presence of chemical substance/The level of expressed mRNA in the absence of chemical substance", "setting": "yeast gene YMR097C, incubated two hours with chemical substance", "result": 1.5}, {"measurement": "The level of expressed mRNA in the presence of chemical substance/The level of expressed mRNA in the absence of chemical substance", "setting": "yeast gene YMR102C, incubated two hours with chemical substance", "result": 1.0}, {"measurement": "The level of expressed mRNA in the presence of chemical substance/The level of expressed mRNA in the absence of chemical substance", "setting": "yeast gene YMR107W, incubated two hours with chemical substance", "result": 5.0}, {"measurement": "The level of expressed mRNA in the presence of chemical substance/The level of expressed mRNA in the absence of chemical substance", "setting": "yeast gene YMR180C, incubated two hours with chemical substance", "result": 1.2}, {"measurement": "The level of expressed mRNA in the presence of chemical substance/The level of expressed mRNA in the absence of chemical substance", "setting": "yeast gene YMR184W, incubated two hours with chemical substance", "result": 1.3}, {"measurement": "The level of expressed mRNA in the presence of chemical substance/The level of expressed mRNA in the absence of chemical substance", "setting": "yeast gene YMR191W, incubated two hours with chemical substance", "result": 1.3}, {"measurement": "The level of expressed mRNA in the presence of chemical substance/The level of expressed mRNA in the absence of chemical substance", "setting": "yeast gene YMR295C, incubated two hours with chemical substance", "result": 1.7}, {"measurement": "The level of expressed mRNA in the presence of chemical substance/The level of expressed mRNA in the absence of chemical substance", "setting": "yeast gene YMR316W, incubated two hours with chemical substance", "result": 3.2}, {"measurement": "The level of expressed mRNA in the presence of chemical substance/The level of expressed mRNA in the absence of chemical substance", "setting": "yeast gene YNL044W, incubated two hours with chemical substance", "result": 1.3}, {"measurement": "The level of expressed mRNA in the presence of chemical substance/The level of expressed mRNA in the absence of chemical substance", "setting": "yeast gene YNL074C, incubated two hours with chemical substance", "result": 0.9}, {"measurement": "The level of expressed mRNA in the presence of chemical substance/The level of expressed mRNA in the absence of chemical substance", "setting": "yeast gene YNL092W, incubated two hours with chemical substance", "result": 1.3}, {"measurement": "The level of expressed mRNA in the presence of chemical substance/The level of expressed mRNA in the absence of chemical substance", "setting": "yeast gene YNL115C, incubated two hours with chemical substance", "result": 0.7}, {"measurement": "The level of expressed mRNA in the presence of chemical substance/The level of expressed mRNA in the absence of chemical substance", "setting": "yeast gene YNL156C, incubated two hours with chemical substance", "result": 1.1}, {"measurement": "The level of expressed mRNA in the presence of chemical substance/The level of expressed mRNA in the absence of chemical substance", "setting": "yeast gene YNL234W, incubated two hours with chemical substance", "result": 1.1}, {"measurement": "The level of expressed mRNA in the presence of chemical substance/The level of expressed mRNA in the absence of chemical substance", "setting": "yeast gene YNL281W, incubated two hours with chemical substance", "result": 1.0}, {"measurement": "The level of expressed mRNA in the presence of chemical substance/The level of expressed mRNA in the absence of chemical substance", "setting": "yeast gene YNL305C, incubated two hours with chemical substance", "result": 0.9}, {"measurement": "The level of expressed mRNA in the presence of chemical substance/The level of expressed mRNA in the absence of chemical substance", "setting": "yeast gene YNR068C, incubated two hours with chemical substance", "result": 1.2}, {"measurement": "The level of expressed mRNA in the presence of chemical substance/The level of expressed mRNA in the absence of chemical substance", "setting": "yeast gene YOL032W, incubated two hours with chemical substance", "result": 1.3}, {"measurement": "The level of expressed mRNA in the presence of chemical substance/The level of expressed mRNA in the absence of chemical substance", "setting": "yeast gene YOL036W, incubated two hours with chemical substance", "result": 0.8}, {"measurement": "The level of expressed mRNA in the presence of chemical substance/The level of expressed mRNA in the absence of chemical substance", "setting": "yeast gene YOL047C, incubated two hours with chemical substance", "result": 1.4}, {"measurement": "The level of expressed mRNA in the presence of chemical substance/The level of expressed mRNA in the absence of chemical substance", "setting": "yeast gene YOL071W, incubated two hours with chemical substance", "result": 1.3}, {"measurement": "The level of expressed mRNA in the presence of chemical substance/The level of expressed mRNA in the absence of chemical substance", "setting": "yeast gene YOL082W, incubated two hours with chemical substance", "result": 1.0}, {"measurement": "The level of expressed mRNA in the presence of chemical substance/The level of expressed mRNA in the absence of chemical substance", "setting": "yeast gene YOL083W, incubated two hours with chemical substance", "result": 1.1}, {"measurement": "The level of expressed mRNA in the presence of chemical substance/The level of expressed mRNA in the absence of chemical substance", "setting": "yeast gene YOL117W, incubated two hours with chemical substance", "result": 1.0}, {"measurement": "The level of expressed mRNA in the presence of chemical substance/The level of expressed mRNA in the absence of chemical substance", "setting": "yeast gene YOL131W, incubated two hours with chemical substance", "result": 1.0}, {"measurement": "The level of expressed mRNA in the presence of chemical substance/The level of expressed mRNA in the absence of chemical substance", "setting": "yeast gene YOL150C", "result": 4.1}, {"measurement": "The level of expressed mRNA in the presence of chemical substance/The level of expressed mRNA in the absence of chemical substance", "setting": "yeast gene YOL162W, incubated two hours with chemical substance", "result": 2.0}, {"measurement": "The level of expressed mRNA in the presence of chemical substance/The level of expressed mRNA in the absence of chemical substance", "setting": "yeast gene YOR019W, incubated two hours with chemical substance", "result": 2.9}, {"measurement": "The level of expressed mRNA in the presence of chemical substance/The level of expressed mRNA in the absence of chemical substance", "setting": "yeast gene YOR197W, incubated two hours with chemical substance", "result": 0.8}, {"measurement": "The level of expressed mRNA in the presence of chemical substance/The level of expressed mRNA in the absence of chemical substance", "setting": "yeast gene YPL087W, incubated two hours with chemical substance", "result": 1.0}, {"measurement": "The level of expressed mRNA in the presence of chemical substance/The level of expressed mRNA in the absence of chemical substance", "setting": "yeast gene YPL196W, incubated two hours with chemical substance", "result": 1.3}, {"measurement": "The level of expressed mRNA in the presence of chemical substance/The level of expressed mRNA in the absence of chemical substance", "setting": "yeast gene YPL206C, incubated two hours with chemical substance", "result": 1.0}, {"measurement": "The level of expressed mRNA in the presence of chemical substance/The level of expressed mRNA in the absence of chemical substance", "setting": "yeast gene YPL222W, incubated two hours with chemical substance", "result": 0.9}, {"measurement": "The level of expressed mRNA in the presence of chemical substance/The level of expressed mRNA in the absence of chemical substance", "setting": "yeast gene YPR023C, incubated two hours with chemical substance", "result": 1.2}, {"measurement": "The level of expressed mRNA in the presence of chemical substance/The level of expressed mRNA in the absence of chemical substance", "setting": "yeast gene YPR151C, incubated two hours with chemical substance", "result": 2.3}]}]}
